“And” between values parts separate entries of the source, which are not always exact repeats. Identical values can stand only once. Like-named read-outs stand apart in the source and are kept apart here.
Columns and labels:
[1] = tested on: Hyp1-Nluc parasites; assay: Egress, invasion & recovery assay (Nluc bioluminescence, smears); format: cell-based, Plasmodium falciparum; conditions: W-991 60 nM
Description: To measure egress, invasion, and follow-up recovery in the presence of different compounds, we adapted the method developed in[11], using Hyp1-Nluc parasites. A full description is in the Supplementary Information. […]
and compound 4. Note that M-833 was first purchased from MolPort (MolPort -002-267-916) then made in-house at WEHI: the differences observed in EC50s across experiments are attributed to the different batches of M -833. […]
Egress, invasion & recovery assay. To measure egress, invasion and follow up recovery in the presence of different compounds, we adapted the method developed in6, using Hyp1-Nluc parasites7. These parasites episomally express the exported PEXEL protein Hyp1 (PF3D7_0113300) tagged with a NanoLuc luciferase (NLuc) and were selected with 2.5 nM WR99210 (Jacobus). Highly synchronised schizonts were obtained using ML10 (LifeArc) and sorbitol synchronisation, and Percoll-purified (the culture was gently layered over 67% Percoll (Cytiva) in RPMI, and centrifuged for 15 min at 1500 g and the schizont layer was collected and washed). In a 96-well plate, […]
cultures were set up in 4 replicates (3 replicates for the Nluc readout, and one replicate for Giemsa smears) with 1-2% parasitemia, 2% haematocrit, with the following […]
100 μg/ml heparin (Sigma) and 10 μM E64 (Sigma). The schizonts were allowed to egress and invade for 4 h at 37°C. A “background” plate without treatment was left in the fridge during this time. After 4 h, cultures were sorbitol -treated to eliminate schizonts that have not egressed. Smears were made every day for the following 3 days, and 5 μL of the resuspended cultures were taken to measure Nluc activity (to assess parasite’s presence). To measure Nluc activity, 5 μL culture were added to 45 μL NanoGlo reagent (1x Promega lysis buffer and NanoGlo reagent; Promega). The average luminescence of the background cultures was subtracted to the average luminescence of each sample. […]
The viable parasite value was then expressed in log units and parasite reduction ratio was calculated as a decrease in […]

[2] = tested on: CR-WT parasites; assay: Growth inhibition assay (72 h, LDH activity); format: cell-based, Plasmodium falciparum; conditions: CR-WT; for inhibition at 0.1 µM / inhibition at up to 0.1 µM / EC50: Plasmodium falciparum; for inhibition at 0.1 µM / inhibition at up to 0.1 µM: read-out: NORMALISED (growth inhibition, LDH absorbance); for EC50: read-out: EC50 W-991 (95% confidence interval), Fig 4C, n = 3
Description: Parasite growth assays with inhibitory compounds were performed as per[11] and are fully described in the Supplementary Information.
Molecular biology and transfection of P. falciparum: CRISPR method.
The full 5’ homology region of pfstart1 (either WT, N309K or N330K) was amplified from pPfSTART1-HA-2A-Neo-glmS with the same 5’ BglII primer and a new 3’ primer that replaced with PstI with SpeI and introduced a stop codon. The PCR product was then digested with BglII and SpeI and inserted into similarly digested p1.2 parasite vector2. The p1.2 vector had previously been inserted with a homology region amplified from the 3’ end of the pfstart1 gene (3’HB) to form a second homology block for double recombination. The primers used to amplify 3’HB are listed primers listed in […]
60 μg of p1.2-PfSTART1(WT/N309K/N330K) plasmid was linearised with KasI, precipitated in 3 M sodium acetate and ethanol (70% final concentration) overnight at -20°C. The DNA pellet was washed in cold 70% ethanol and resuspended in cytomix 3.
50 μ M of crRNA ( Table S 2) and 50 μM of tracRNA (Integrated DNA Technologies) were allowed to form a duplex (5 min at 95°C), and Cas9 enzyme (Integrated DNA Technologies) was added, and incubated for 20 min at room temperature 4. This crRNA -tracRNA -Cas9 mix was added to each DNA preparation and transfected to 3D7 ring parasites using the Bio -Rad Gene Pulser at 310 V and 950 μF.
Parasites containing the transfected DNA were selected using 2.5 nM WR99210 (Jacobus). Parasites lines were cloned using limiting dilution. Correct integration was tested by PCR (using primer START_5’UTR.F and START_Int.R1 , Table S 2), and sequencing was done using the primers START_3F and START_Int.R2 (Table S 2).
Growth inhibition assays. Synchronised ring-stage parasites (0.3-0.6% parasitemia, 2% haematocrit) were grown for 72 h in a serial-dilution of the compound under […]
and compound 4. Note that M-833 was first purchased from MolPort (MolPort -002-267-916) then made in-house at WEHI: the differences observed in EC50s across experiments are attributed to the different batches of M -833. For some experiments, 0, 0.25 or 2.5 mM of glucosamine (GlcN) was also added. Experiments were set up in technical duplicates or triplicates. Following a freeze -thaw cycle, lactate dehydrogenase (LDH) activity was assessed as an indicator of parasite growt h 5. 30 μL of parasite culture was incubated for 30 min in the dark with 75 μL Malstat mixture (0.1 M Tris pH 9.0, 20 g/L lactic acid, pH 7.5, 0.2% Triton-X100, 0.5 g/L acetylpyridine adenine dinucleotide (APAD, Sigma), 200 μg/mL nitroblue tetrazolium (NBT; Sigma), 1 μg/mL phenozine ethosulfate (PES; Sigma)). Absorbance was then measured at 650 nm, transformed using the formula below, plotted against the logarithm of the concentrations, and a non-linear regression (log(inhibitor) vs. response, variable slope) was calculated using GraphPad Prism to assess the half-inhibitory […]
Growth inhibition % = (1 − average(sample)− average(uRBC)) ∗ 100 […]
The DMSO samples were also used to assess growth of parasite in the presence of 0.25 and 2.5 mM GlcN (normalised by DMSO in 0 mM GlcN). […]

[3] = 0.25 mM GlcN, dilution point 1 of 10, starting concentration 100 nM
[4] = 2.5 mM GlcN, dilution point 1 of 10, starting concentration 100 nM
[5] = 2.5 mM GlcN, dilution point 2 of 10 from starting concentration 100 nM
[6] = 2.5 mM GlcN, dilution point 3 of 10 from starting concentration 100 nM
[7] = 2.5 mM GlcN, dilution point 4 of 10 from starting concentration 100 nM
[8] = 2.5 mM GlcN, dilution point 6 of 10 from starting concentration 100 nM

CC(C)(Nc1ccc(Cl)c(S(=O)(=O)N2CCOCC2)c1)C(=O)Nc1ccc(F)c(Cl)c1 [W-991] was tested. Which “parasite morphology at 72 h after 4 h treatment” value ([1]; M-833 2 µM, Giemsa smears) did it give?
Its value is “resembled the dysmorphic ring-stage parasites”.

What about the “parasite growth (Nluc bioluminescence) followed 72 h after 4 h treatment” value ([1]; schizonts treated 4 h: M-833 2 µM, ML10 30 nM, E64 10 µM, heparin 100 µg/mL, then washed off) of the same compound?
The value was “virtually no recovery after three days”.

What about the “NORMALISED (growth inhibition, LDH absorbance vs DMSO and uRBC)” value ([2]; 0 mM GlcN, W991 at 1.23457 nM) of the same compound?
Its value is 49.5102 and 70.9626.

What about the “NORMALISED (growth inhibition, LDH absorbance vs DMSO and uRBC)” value ([2]; 0 mM GlcN, W991 at 3.7037 nM) of the same compound?
Its value is 86.3119 and 94.5107.

And the “NORMALISED (growth inhibition, LDH absorbance vs DMSO and uRBC)” value ([2]; 0 mM GlcN, W991 at 11.1111 nM)?
The value was 91.2364 and 97.6134.

And the “NORMALISED (growth inhibition, LDH absorbance vs DMSO and uRBC)” value ([2]; 0 mM GlcN, W991 at 33.3333 nM)?
The value was 92.4279 and 96.4200.

And the “NORMALISED (growth inhibition, LDH absorbance vs DMSO and uRBC)” value ([2]; 0 mM GlcN, W991 at 100 nM)?
The value was 91.9778 and 98.0111.

And the “NORMALISED (growth inhibition, LDH absorbance)” value [2, 3]?
Its value is 97.4106.

And the “NORMALISED (growth inhibition, LDH absorbance)” value ([2]; 0.25 mM GlcN, dilution point 2 of 10 from starting concentration 100 nM)?
The value was 93.8101.

What about the “NORMALISED (growth inhibition, LDH absorbance)” value ([2]; 0.25 mM GlcN, dilution point 3 of 10 from starting concentration 100 nM) of the same compound?
Its value is 94.0567.

And the “NORMALISED (growth inhibition, LDH absorbance)” value ([2]; 0.25 mM GlcN, dilution point 4 of 10 from starting concentration 100 nM)?
Its value is 92.7990.

And the “NORMALISED (growth inhibition, LDH absorbance)” value ([2]; 0.25 mM GlcN, dilution point 5 of 10 from starting concentration 100 nM)?
Its value is 69.6729 and 71.5413.

And the “NORMALISED (growth inhibition, LDH absorbance)” value ([2]; 0.25 mM GlcN, dilution point 6 of 10 from starting concentration 100 nM)?
The value was 30.2387 and 29.5808.

What about the “NORMALISED (growth inhibition, LDH absorbance)” value [2, 4] of the same compound?
Its value is 92.5403.

And the “NORMALISED (growth inhibition, LDH absorbance)” value [2, 5]?
Its value is 92.2581.

And the “NORMALISED (growth inhibition, LDH absorbance)” value [2, 6]?
The value was 92.0699.

And the “NORMALISED (growth inhibition, LDH absorbance)” value [2, 7]?
Its value is 91.3306.

And the “NORMALISED (growth inhibition, LDH absorbance)” value ([2]; 2.5 mM GlcN, dilution point 5 of 10 from starting concentration 100 nM)?
The value was 90.4301.

What about the “NORMALISED (growth inhibition, LDH absorbance)” value [2, 8] of the same compound?
Its value is 75.1747.

What about the “NORMALISED (growth inhibition, LDH absorbance)” value ([2]; 2.5 mM GlcN, dilution point 7 of 10 from starting concentration 100 nM) of the same compound?
Its value is 66.8125 and 50.5511.

And the “NORMALISED (growth inhibition, LDH absorbance)” value ([2]; 2.5 mM GlcN, dilution point 8 of 10 from starting concentration 100 nM)?
Its value is 47.5123 and 39.2070.

What about the “NORMALISED (growth inhibition, LDH absorbance)” value ([2]; 2.5 mM GlcN, dilution point 9 of 10 from starting concentration 100 nM) of the same compound?
The value was 32.6882 and 33.0782.

What about the “NORMALISED (growth inhibition, LDH absorbance)” value ([2]; 2.5 mM GlcN, dilution point 10 of 10 from starting concentration 100 nM) of the same compound?
The value was 35.7796 and 19.6829.

What about the “fold sensitised on PfSTART1 knock-down with GlcN” value ([2]; Fig 4C) of the same compound?
Its value is 7 fold.

What about the inhibition at 0.1 µM [2, 3] of the same compound?
Its inhibition at 0.1 µM is 93.4%.

What about the inhibition at 0.1 µM [2, 4] of the same compound?
The inhibition at 0.1 µM was 94.2%.

What about the inhibition at up to 0.1 µM [2, 5] of the same compound?
The inhibition at up to 0.1 µM was 91.4%.

What about the inhibition at up to 0.1 µM [2, 6] of the same compound?
The inhibition at up to 0.1 µM was 93%.

What about the inhibition at up to 0.1 µM [2, 7] of the same compound?
The inhibition at up to 0.1 µM was 91.6%.

And the inhibition at up to 0.1 µM [2, 8]?
The inhibition at up to 0.1 µM was 80.3%.

What about the EC50 ([2]; 0 mM GlcN) of the same compound?
The EC50 was 1.08 nM.

What about the EC50 ([2]; 0.25 mM GlcN) of the same compound?
The EC50 was 0.727 nM.

What about the EC50 ([2]; 2.5 mM GlcN) of the same compound?
Its EC50 is 0.154 nM.

— paper PMC11189555, “Aryl amino acetamides prevent Plasmodium falciparum ring development via targeting the lipid-transfer protein PfSTART1” (Nature Communications, 2024)
